What was measured:
Test in all cases: relative viability (nuclei count vs DMSO), 5 days (fraction); higher = more cells survive
[1] = compound: CC1=CC=C(C=C1)C(=O)CN2C3=C(CCCC3)SC2=N [Pifithrin_alpha] + N=C(N)NC(=N)NCCc1ccccc1 [Phenformin] (partner 250 µM)
In short: (§1)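 Five library-drug doses in √10 steps were combined with a fixed anchor-drug dose, or a single drug was given alone, by pin tool to lung cancer cell lines in 1536-well plates the day after seeding. Nuclei were stained and counted after 5 days. Relative viability is the nuclei count in treated wells over that in vehicle wells, taken as the median of duplicate plates.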

[2] = compound: CC1=CC=C(C=C1)C(=O)CN2C3=C(CCCC3)SC2=N [Pifithrin_alpha] + C[C@@H](Oc1cc(-c2cnn(C3CCNCC3)c2)cnc1N)c1c(Cl)ccc(F)c1Cl [Crizotinib] (partner 1 µM)
In short: as §1

Axitinib + Trametinib = compound: CNC(=O)c1ccccc1Sc1ccc2c(/C=C/c3ccccn3)n[nH]c2c1 [Axitinib] + CC(=O)Nc1cccc(-n2c(=O)n(C3CC3)c(=O)c3c(Nc4ccc(I)cc4F)n(C)c(=O)c(C)c32)c1 [Trametinib] (partner 0.02 µM)
In short: as §1

[3] = compound: CC1=CC=C(C=C1)C(=O)CN2C3=C(CCCC3)SC2=N [Pifithrin_alpha] + CS(=O)(=O)N1CCN(Cc2cc3nc(-c4cccc5[nH]ncc45)nc(N4CCOCC4)c3s2)CC1 [Pictilisib] (partner 1 µM)
In short: as §1

**Q.** How did the relative viability ([1]; first compound 3.162 µM) turn out when NCI-H650 was run?
**A.** The relative viability was 0.49.

**Q.** What about the relative viability ([1]; first compound 10 µM) of the same cell line?
**A.** The relative viability was 0.454.

**Q.** And the relative viability ([1]; first compound 31.62 µM)?
**A.** The relative viability was 0.421.

**Q.** What about the relative viability ([1]; first compound 100 µM) of the same cell line?
**A.** The relative viability was 0.421.

**Q.** And the relative viability ([2]; first compound 3.162 µM)?
**A.** Its relative viability is 0.671.

**Q.** What about the relative viability ([2]; first compound 10 µM) of the same cell line?
**A.** The relative viability was 0.659.

**Q.** And the relative viability ([2]; first compound 31.62 µM)?
**A.** Its relative viability is 0.434.

**Q.** What about the relative viability ([2]; first compound 100 µM) of the same cell line?
**A.** The relative viability was 0.743.

**Q.** What about the relative viability (Axitinib + Trametinib; first compound 0.005 µM) of the same cell line?
**A.** Its relative viability is 1.04.

**Q.** What about the relative viability (Axitinib + Trametinib; first compound 0.01581 µM) of the same cell line?
**A.** The relative viability was 1.

**Q.** What about the relative viability (Axitinib + Trametinib; first compound 0.05 µM) of the same cell line?
**A.** Its relative viability is 0.893.

**Q.** And the relative viability (Axitinib + Trametinib; first compound 0.1581 µM)?
**A.** Its relative viability is 0.869.

**Q.** And the relative viability (Axitinib + Trametinib; first compound 0.5 µM)?
**A.** Its relative viability is 1.06.

**Q.** And the relative viability ([3]; first compound 3.162 µM)?
**A.** The relative viability was 0.91.

**Q.** And the relative viability ([3]; first compound 10 µM)?
**A.** The relative viability was 0.873.

**Q.** What about the relative viability ([3]; first compound 31.62 µM) of the same cell line?
**A.** The relative viability was 0.58.

**Q.** What about the relative viability ([3]; first compound 100 µM) of the same cell line?
**A.** The relative viability was 0.763.

From the supplement of paper PMC10307832
